Assay results published in article PMC7972453, “The allosteric modulation of complement C5 by knob domain peptides” (eLife, 2021).
Read-outs that look alike come from different tables or passages of the source. Bridges are numbered along the chain shown (N, C = ends). Where no end group is shown, it is not given here.

Tests used:
[1] = system: alternative pathway mediated C5a release (complement C5); test: Inhibition of alternative pathway mediated C5a release (ELISA); assay type: biochemical, human; details: AP C5a release; n=3 (K8: n=4); ND* = Not detected
Procedure: For the C5b ELISA, assays were run using the CP and AP Complement functional ELISA kits (Svar Life Science, Malmö, Sweden). For sample preparation, serum was diluted as per the respective protocol for the CP and AP assays. Serial dilutions of peptides were prepared and allowed to incubate with serum for 15 min at room temperature prior to plating.
For the C5a ELISA, assays were run using the Complement C5a Human ELISA Kit (Invitrogen, Renfrew, UK). For sample preparation, at the end of the 37°C incubation of the serum/peptide samples on the C5b ELISA plate, 50 µL of the diluted, activated serum was transferred to a C5a ELISA plate containing 50 µL/well of assay buffer. All subsequent experimental steps were performed as described in the protocol.
Table 1.4. Inhibition of alternative pathway mediated C5a release.
Data from n=3, unless otherwise stated

[2] = system: alternative pathway mediated C9 deposition; test: Inhibition of alternative pathway mediated C9 deposition (ELISA); assay type: biochemical, human; details: 5% serum, n=3, ND* = Not detected
Procedure: For the C3 and C9 ELISAs, microtiter plates (MaxiSorp; Nunc) were incubated overnight at 4°C with 50 µL of a solution of in 75 mM sodium carbonate (pH 9.6) containing either 2.5 µg/mL aggregated human IgG (Sigma-Aldrich, Gillingham, UK) for CP or 20 µg/mL zymosan (Sigma-Aldrich, Gillingham, UK) for AP. As a negative control, wells were coated with 1% (w/v) bovine serum albumin (BSA)/PBS. Microtiter plates were washed four times with 250 µL of wash buffer (50 mM Tris-HCl), 150 mM NaCl and 0.1% Tween 20 (pH 8) between each step of the procedure. Wells were blocked using 250 µL of 1% (w/v) BSA/PBS for 2 hr at room temperature. […] Complement activation was assessed through detection of deposited complement activation factors using specific antibodies against C3b (rat anti-human C3d HM2198, Hycult, Uden, The Netherlands) and C9 (goat anti-human C9, A226, Complement Technologies Tyler, TX) at a 1:1000 dilution. Bound primary antibodies were detected with […]-conjugated goat anti-rat (ab97057, Abcam, Cambridge, UK) or rabbit anti-goat (P0449, Agilent Dako, Santa Clara, CA) secondary antibodies at a 1:1000 dilution. Bound HRP-conjugated antibodies were detected using TMB One solution (Eco-TEK – manufactured by Bio-TEK, Winooski, VT) with absorbance measured at 450 nm. […]

[3] = system: sheep erythrocytes (classical pathway haemolysis); test: Inhibition of classical pathway haemolysis; assay type: cell-based, sheep erythrocytes; normal human serum; details: 1% serum
Procedure: GVB^++ or Mg EGTA buffers, which had been supplemented with 2.5% glucose (w/v), were used for the CP and AP assays, respectively. For the AP, 150 µL of rabbit erythrocytes (TCS Biosciences, Botolph Claydon, UK) were washed twice, by addition of 1 mL of buffer and centrifugation at 800 ×g for 1 min, and finally resuspended in 500 µL of buffer. For the CP, 150 µL sheep erythrocytes (TCS Biosciences, Botolph Claydon, UK) were washed twice with 1 mL of buffer and sensitised with a 1/1000 dilution of rabbit anti-sheep red blood cell stroma antibody (S1389, Sigma Aldrich, Gillingham, UK). After a 30°C/30 min incubation, with shaking, the cells were rewashed and resuspended with 500 µL of buffer. Serial dilutions of peptide were prepared in the respective buffers and normal human serum was added at 1% for the CP and 4.5% for the AP (corresponding to CH50 of the serum). Also, 90 µL of peptide–serum mixtures were plated into a V-bottom 96-well microtiter plate (Corning) and 10 µL of erythrocytes were added. Plates were incubated for 30 min at 37°C, with shaking. Finally, 50 µL of buffer was added, the plates centrifuged at 800 ×g, and 80 µL of supernatant was transferred to an ELISA plate (Nunc) and absorbance measured at 405 nm.
Table 1.7. Inhibition of classical pathway haemolysis.

[4] = biological target: T1, human C5 (Homo sapiens, UniProt P01031); test: SPR multi-cycle kinetics, binding to C5
T1 construct: tissue TCS Biosciences (serum); host or cells: human serum
Procedure: Kinetics were measured using a Biacore 8K (GE Healthcare, Amersham, UK) with a CM5 chip, which was prepared as follows: 1-ethyl-3-(−3-dimethylaminopropyl) carbodiimide hydrochloride (EDC)/N-hydroxysuccinimide (NHS) was mixed at 1:1 ratio (flow rate, 10 µL/min; contact time, 30 s), and human C5 at 1 µg/mL in pH 4.5 sodium acetate buffer was injected over flow cell one only (flow rate, 10 µL/min; contact time, 60 s). Final immobilisation levels in the range of 2000–3000 RUs were obtained to yield theoretical Rmax values of ~50–60 RU. […] After each injection, the surface was regenerated with two sequential injections of 2 M MgCl2 (flow rate, 30 µL/min; contact time, 30 s). Binding to the reference surface was subtracted, and the data were fitted to a single-site binding model using Biacore evaluation software.
Table 2.6. Validation of molecular interactions by peptide mutagenesis analysis.
Summary of SPR multi-cycle kinetics

T1 sequence (P01031 678-1676 limits assumed): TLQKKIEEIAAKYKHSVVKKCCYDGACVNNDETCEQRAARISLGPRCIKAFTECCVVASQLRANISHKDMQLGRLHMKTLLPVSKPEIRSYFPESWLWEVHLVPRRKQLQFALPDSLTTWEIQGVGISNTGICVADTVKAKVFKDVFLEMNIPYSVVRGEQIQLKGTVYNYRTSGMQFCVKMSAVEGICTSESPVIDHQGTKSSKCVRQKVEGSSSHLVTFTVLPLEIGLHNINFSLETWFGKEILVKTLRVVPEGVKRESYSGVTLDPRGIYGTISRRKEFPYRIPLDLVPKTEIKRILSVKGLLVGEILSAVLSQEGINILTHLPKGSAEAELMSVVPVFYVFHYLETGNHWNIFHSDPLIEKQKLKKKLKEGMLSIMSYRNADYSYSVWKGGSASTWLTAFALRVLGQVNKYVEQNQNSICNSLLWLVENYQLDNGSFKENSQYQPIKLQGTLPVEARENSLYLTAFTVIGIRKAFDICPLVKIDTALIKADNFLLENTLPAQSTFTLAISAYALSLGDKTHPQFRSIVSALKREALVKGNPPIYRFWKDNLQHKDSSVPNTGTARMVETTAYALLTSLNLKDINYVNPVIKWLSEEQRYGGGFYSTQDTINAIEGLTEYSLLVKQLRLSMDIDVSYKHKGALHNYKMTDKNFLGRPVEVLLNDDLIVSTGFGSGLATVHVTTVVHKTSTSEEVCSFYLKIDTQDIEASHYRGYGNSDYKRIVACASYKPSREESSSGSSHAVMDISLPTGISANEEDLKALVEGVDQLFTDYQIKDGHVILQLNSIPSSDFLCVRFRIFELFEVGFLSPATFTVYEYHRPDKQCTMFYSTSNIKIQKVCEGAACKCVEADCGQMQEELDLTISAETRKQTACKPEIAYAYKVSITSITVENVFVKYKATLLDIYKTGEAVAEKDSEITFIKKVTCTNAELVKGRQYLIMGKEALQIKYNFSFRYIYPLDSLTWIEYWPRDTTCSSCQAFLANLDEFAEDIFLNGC
T1 sequence (P01031 19-673 limits assumed): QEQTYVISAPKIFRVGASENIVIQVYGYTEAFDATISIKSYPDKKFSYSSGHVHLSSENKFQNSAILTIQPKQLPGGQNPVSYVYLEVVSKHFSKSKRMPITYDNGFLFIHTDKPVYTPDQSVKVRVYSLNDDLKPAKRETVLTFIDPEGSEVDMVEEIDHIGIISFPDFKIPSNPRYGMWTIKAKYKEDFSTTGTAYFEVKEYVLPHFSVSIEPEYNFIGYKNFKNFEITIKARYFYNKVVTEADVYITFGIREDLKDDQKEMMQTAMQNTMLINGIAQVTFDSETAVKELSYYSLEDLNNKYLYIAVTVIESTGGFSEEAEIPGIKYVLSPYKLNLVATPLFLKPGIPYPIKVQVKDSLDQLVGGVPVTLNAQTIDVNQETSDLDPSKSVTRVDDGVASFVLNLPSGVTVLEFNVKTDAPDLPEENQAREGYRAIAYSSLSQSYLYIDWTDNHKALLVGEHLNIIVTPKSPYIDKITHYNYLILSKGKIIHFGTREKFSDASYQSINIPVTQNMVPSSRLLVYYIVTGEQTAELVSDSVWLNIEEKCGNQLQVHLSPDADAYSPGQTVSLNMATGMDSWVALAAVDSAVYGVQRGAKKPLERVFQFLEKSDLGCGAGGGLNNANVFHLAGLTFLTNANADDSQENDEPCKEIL

SVCPDGFDWGYGCAAGSSRFCTRHDWCCYDERADSHTYGFCTGNRVENLYFQ (disulfide 3-28, 13-21, 27-41) [K8]
Average Emax [1]: 71.8% | Average Emax ([2]; AP C9 deposition): 73.3% | IC50 ([2]; AP, Mg-EGTA pH 7.3, zymosan plate, preincubated on ice 30 min, 60 min 37°C, read-out: Geomean IC50): 232 nM | Average Emax ([3]; CP haemolysis, n=3, ND* = Not detected): 95.6% | inhibition of CP haemolysis (in words) ([3]; sheep erythrocytes): efficacious in the CP assay | mean stoich. ratio ([4]; Biacore 8K, mean of n=3): 0.25 | koff ([4]; pH 7.4, read-out: mean koff, Biacore 8K, HBS-EP pH 7.4, mean of n=3): 0.000385 s⁻¹ | kon ([4]; pH 7.4, read-out: mean kon, Biacore 8K, CM5 chip, HBS-EP pH 7.4, mean of n=3): 70500 M⁻¹ s⁻¹ | koff ([4]; replicate n=1): 0.000372 s⁻¹ | kon ([4]; replicate n=1): 71000 M⁻¹ s⁻¹ | stoich. ratio ([4]; replicate n=1): 0.28 | koff ([4]; replicate n=2): 0.000422 s⁻¹ | kon ([4]; replicate n=2): 72600 M⁻¹ s⁻¹ | stoich. ratio ([4]; replicate n=2): 0.23 | koff ([4]; replicate n=3): 0.000361 s⁻¹ | kon ([4]; replicate n=3): 67800 M⁻¹ s⁻¹ | stoich. ratio ([4]; replicate n=3): 0.24
